Source: article PMC12024264, “Frog Skin Peptides Hylin-a1, AR-23, and RV-23: Promising Tools Against Carbapenem-Resistant Escherichia coli and Klebsiella pneumoniae Infections” (Antibiotics, 2025)
Where no end group is shown, it is not given here.

Legend:
HaCaT cells = assay: MTT cytotoxicity assay on HaCaT keratinocytes; format: cell-based, human; conditions: for 50% cytotoxic concentration (CC50): HaCaT keratinocytes, 20 h exposure, 0.39 to 100 μM; for CC50 obtained by the fitting of the curves: HaCaT, 20 h, Figure 1
Protocol: To evaluate their safety profile, cytotoxicity assays were performed on HaCaT keratinocytes. Cells were exposed for 20 h to peptides at doses ranging from 0.39 to 100 μM.
Figure 1 Dose–response curves for the AMPs against HaCaT cell line and CC50 (reported in μM), HillSlope, and R^2 values were obtained by the fitting of the curves. The viability effect of Hylin-a1, AR-23, and RV-23 was analyzed on HaCaT cells. The cell monolayer was treated with serial dilutions of peptides for 20 h. Untreated cells were used as a positive control, while dimethyl sulfoxide (DMSO) was used as a negative control. HillSlope: The measure of the steepness of the dose–response curve. […] R^2 (coefficient of determination) indicates how well the model fits the data. Ranges from 0 to 1, with 1 representing a perfect fit.
The cytotoxic effect of peptides was examined using 3-(4,5 dimethylthiazol-2-yl)-2,5-diphenyltetrazolium bromide (MTT), as previously described. Cell viability, expressed as a percentage, was calculated in relation to the viability of untreated cells (+). DMSO was used as negative control (−). The human keratinocyte cell line HaCaT (Cell Lines Service, CLS-, Eppelheim, Germany) was used as a cellular model to evaluate the peptides’ cytotoxicity. HaCaT cells were grown in Dulbecco’s Modified Eagle Medium (DMEM) with 4.5 g/L of glucose (Microtech, Naples, Italy) supplemented with an antibiotic solution 100× (Himedia, Naples, Italy) and 10% Fetal Bovine Serum (FBS, Microtech).

E. coli ATCC 25992 [1] = conditions: for MBC: colonies' growth on agar plates after microdilution, N/D = not detected antibacterial activity; for MIC: microdilution (NCCLS), MH broth, 5 × 10^5 CFU/mL, 37 °C, 20 h, absorbance, 50 to 1.56 μM
Protocol: (§1) The three peptides were tested for their antibacterial activity. […] As described in the Materials and Methods section, the antibacterial effect of peptides was investigated using a microdilution assay. Each concentration of AMPs was inoculated with bacteria in 96-well plates and incubated at 37 °C for 20 h. After that, MIC values were determined by analyzing absorbance and expressed as a percentage of inhibition. MBC was assessed by observing the colonies’ growth on agar plates, as described elsewhere.
(§2) Each strain was grown in Mueller Hinton Broth (MH Broth), and 5 × 10^5 CFU/mL was used to evaluate antibacterial activity. Clinical carbapenem-resistant K. pneumoniae and E. coli isolates were collected at the AOU of Virology and Microbiology of the University of Campania “Luigi Vanvitelli”.
(§3) The antimicrobial activity of Hylin-a1, AR-23, and RV-23 was investigated using a microdilution assay as reported by the National Committee on Clinical Laboratory Standards (NCCLS) guidelines against a broad spectrum of Gram-negative bacteria. […] In 96-well, the standardized bacterial inoculum (5 × 10^5 colony forming units, CFU/mL) was inoculated together with AMPs and incubated at 37 °C for 20 h. After the time of incubation, optical density (OD) was measured at TECAN, and data were expressed as a percentage of inhibition. In addition to assessing the MIC values, the bactericidal effect was also studied as reported elsewhere.

K. pneumoniae ATCC 10031 [2] = conditions: for MBC: colonies' growth on agar plates after microdilution, N/D = not detected antibacterial activity; for MIC: microdilution (NCCLS), MH broth, 5 × 10^5 CFU/mL, 37 °C, 20 h, absorbance, 50 to 1.56 μM
Protocol: as §1, §2, §3

E. coli 1441 = conditions: carbapenemase KPC (class A), rectal swab, N/D = no antibacterial activity detected; for MIC: microdilution, 37 °C, 20 h
Protocol: as §2, §3

K. pneumoniae 1746 = conditions: carbapenemase VIM (class B), rectal swab; microdilution, 37 °C, 20 h; N/D = no antibacterial activity detected
Protocol: as §2, §3

K. pneumoniae ATCC 10031 [3] = assay: Biofilm initial cell attachment assay; format: cell-based, Klebsiella pneumoniae; conditions: 2 h; for concentration of total reduction in biofilm attachment (antibiofilm MIC): initial cell attachment, 37 °C, peptides 50-1.56 μM, absorbance 570 nm
Protocol: (§4) We also investigated the ability of peptides to interfere with biofilm using three different assays (refer to the Section 4) against K. pneumonia and E. coli.
(§5) Figure 3 The effect of Hylin-a1, AR-23, and RV-23 on the initial cell attachment of biofilm formation. […] Statistical analysis was performed by One-way ANOVA followed by Dunnett’s multiple comparisons test.
(§6) The anti-biofilm activity of peptides was evaluated against E. coli and K. pneumoniae ATCC strains. Bacterial cultures were grown overnight, then diluted to an OD600 of 0.1 in MH broth supplemented with 1% (v/v) glucose. A 100 μL aliquot of the bacterial suspension was combined with an equal volume of peptides at non-cytotoxic concentrations in a 96-well plate and incubated at 37 °C for 2 h. Following incubation, non-adherent planktonic cells were removed by washing with phosphate-buffered saline (PBS, Microtech), and adherent cells were incubated with MTT solution for 3 h at 37 °C. Additionally, adherent cells were collected, resuspended in PBS, and plated on agar for viable cell counting. Serial dilutions were performed for each peptide, and CFU/mL were determined after 20 h of incubation at 37 °C (Figure S2). Absorbance was measured at 570 nm to evaluate adhesion percentage.

E. coli ATCC 25992 [4] = assay: Biofilm initial cell attachment assay; format: cell-based, Escherichia coli; conditions: 2 h; for concentration of total reduction in biofilm attachment (antibiofilm MIC): initial cell attachment, 37 °C, peptides 50-1.56 μM, absorbance 570 nm
Protocol: as §4, §5, §6

Serum stability assay = format: in vitro ADME, bovine; conditions: 10% FBS
Protocol: The susceptibility of Hylin-a1, AR-23, and RV-23 to proteolytic degradation in serum was evaluated, following the protocol reported in Section 4.3.
Figure 6 AMP stability in serum. Stability profiles of Hylin-a1 (red line), AR-23 (gray line), and RV-23 (black line) are reported. All stability tests were performed at least in triplicate. LC-MS analyses were performed using an Agilent 1260 Infinity II LC/MSD system (Milan, Italy). The percentages of intact peptides after different time points of incubation in serum were determined by integrating RP-HPLC peaks from the chromatograms recorded at a wavelength of 210 nm. The test was performed in triplicate, and the data are presented as mean values, with error bars representing standard deviations.
Peptides were mixed with 10% FBS at a final concentration of 0.2 mg/mL and incubated in a water bath at 37 °C. […] Then, the mixture was diluted with 0.1% TFA in H2O (1:1). Samples were characterized using LC-MS on a C18 Aeris Peptide column (100 × 2.1 mm), applying a linear gradient from 5 to 80% solvent B (0.1% TFA in CH3CN) over solvent A (0.1% TFA in water) in 15 min at a flow rate of 0.2 mL/min. All stability tests were performed at least in triplicate. LC-MS analyses were performed using an Agilent 1260 Infinity II LC/MSD system (Milan, Italy).

E. coli = assay: Checkerboard assay with meropenem; conditions: for MIC of peptide in combination with meropenem: checkerboard, 20 h, OD600

IFGAILPLALGALKNLIK-NH2 [Hylin-a1]
50% cytotoxic concentration (CC50) (HaCaT cells): 100 µM
CC50 obtained by the fitting of the curves (HaCaT cells): 102.6 µM
MBC (E. coli ATCC 25992 [1]): 25 µM
MIC (E. coli ATCC 25992 [1]): 25 µM
MBC (K. pneumoniae ATCC 10031 [2]): 6.25 µM
MIC (K. pneumoniae ATCC 10031 [2]): 6.25 µM
MIC (E. coli 1441): 50 µM
MIC (K. pneumoniae 1746): 25 µM
reduction of biofilm (initial attachment) (K. pneumoniae ATCC 10031 [3]; at 50 μM): 80–100%
concentration of total reduction in biofilm attachment (antibiofilm MIC) (K. pneumoniae ATCC 10031 [3]): 50 µM
reduction of biofilm (initial attachment) (E. coli ATCC 25992 [4]; at 50 μM): 80–100%
concentration of total reduction in biofilm attachment (antibiofilm MIC) (E. coli ATCC 25992 [4]): 50 µM
remaining at 16 h (Serum stability assay; serum, after 16 h, 0.2 mg/mL, 37 °C, RP-HPLC peaks at 210 nm, mean of triplicate, read-out: intact peptide remaining in solution): 60%
MIC of peptide in combination with meropenem (E. coli): 3.125 µM
combinatory effect of peptide and meropenem (E. coli; interpretation of FICI by Table 4): partial synergism

RIGVLLARLPKLFSLFKLMGKKV-NH2 [RV-23]
50% cytotoxic concentration (CC50) (HaCaT cells): 100 µM
CC50 obtained by the fitting of the curves (HaCaT cells): 101.8 µM
MBC (E. coli ATCC 25992 [1]): 12.5 µM
MIC (E. coli ATCC 25992 [1]): 12.5 µM
MBC (K. pneumoniae ATCC 10031 [2]): 12.5 µM
MIC (K. pneumoniae ATCC 10031 [2]): 6.25 µM
MBC (E. coli 1441): 12.5 µM
MIC (E. coli 1441): 6.25 µM
MIC (K. pneumoniae 1746): 12.5 µM
concentration of total reduction in biofilm attachment (antibiofilm MIC) (K. pneumoniae ATCC 10031 [3]): 50 µM
concentration of total reduction in biofilm attachment (antibiofilm MIC) (E. coli ATCC 25992 [4]): 12.5 µM
percentage of intact fragments, almost constant up to 24 h (Serum stability assay; 0.2 mg/mL, 37 °C, RP-HPLC peaks at 210 nm, mean of triplicate, after the first 2 h up to 24 h): around 30%
half-life (Serum stability assay; serum, peptide 0.2 mg/mL, 37 °C water bath, ethanol precipitation, LC-MS, RP-HPLC peak integration at 210 nm, at least triplicate): < 2 h
MIC of peptide in combination with meropenem (E. coli): 6.25 µM
